Where two headings read alike, the source gives them in different places.
Tests used:
Type in all cases: cell-based
Human AR = Human AR (Homo sapiens (Human), UniProt P10275); assay: AR antagonist assay (GRE-LUC luciferase, transfected HEK-293 cells, with 0.1 nM R1881); conditions: for IC50: with 0.1 nM R1881; for inhibition at 1 µM: HEK293
Experimental: Human AR cDNA cloned into pCMV vector, GRE-LUC, and CMV-renilla-LUC were used to transfect cells. HEK-293 cells (ATCC) were plated at 120,000 cells per well of a 24 well plate in DME+5% csFBS (Fisher Scientific, Waltham, Mass.). The cells were transfected using Lipofectamine (Life Technologies, Carlsbad, Calif.) with 0.25 μg GRE-LUC, 0.010 μg CMV-LUC (renilla luciferase) and 25 ng of the AR. […] Luciferase assay was performed 48 hrs after transfection. Firefly luciferase assay values were normalized to renilla luciferase values and were graphed using graphpad prism software (La Jolla, Calif.). […] The IC50 or EC50 values were determined using non-linear regression and […] logistics fitting.

GR = GR (Homo sapiens (Human), UniProt P04150); assay: GR antagonist assay (GRE-LUC luciferase, transfected COS-7 cells, with 0.1 nM dexamethasone); conditions: for IC50 / GR antagonist assay, % of vehicle: in the presence of 0.1 nM dexamethasone; for inhibition at 10 µM: COS-7, read-out: GR Antagonism % inhibition at 10 μM; for GR antagonist assay, % of vehicle: 10 μM
Experimental: COS-7 cells (ATCC, Manassas, Va.) were plated in 24 well plates in DME+5% csFBS without phenol red at 70,000 cells/well. Once the cells attached to the plates (typically after overnight incubation after plating), they were transfected in OPTIMEM medium (Life Technologies) using lipofectamine reagent (Life Technologies) with 0.25 μg GRE-LUC, 25 ng pCR3.1 GR, and 10 ng CMV-renilla LUC per well. Twenty-four hours after transfection, the cells were fed with DME+5% csFBS without phenol red (Fisher Scientific, Waltham, Mass.) and treated with the test compounds (1 pM to 10 μM dose range) in the presence of 0.1 nM dexamethasone (Sigma, St. Louis, Mo.). Sixteen to twenty-four hours after treatment, a luciferase assay was performed using the Dual Luciferase assay kit (Promega, Madison, Wis.). Firefly luciferase values were normalized to Renilla luciferase numbers.

LNCaP-abl cells = assay: Cell proliferation assay, LNCaP-abl (CellTiter-Glo); conditions: 72 h, 3 days; for activity at 3 µM: read-out: cell proliferation, % of vehicle at 3 μM; for activity at 10 µM: read-out: cell proliferation, % of vehicle at 10 μM
Experimental: LNCaP-abl (3,000 cells/well, received from Dr. Myles Brown, Dana Farber Cancer Institute), 22RV1 (1,000 cells/well), LNCaP (5,000 cells/well), or COS (3,000 cells/well) cells were plated in 96 well plates in 50 μl RPMI+10% FBS (Fisher Scientific, Waltham, Mass.). LNCaP, COS, and 22RV1 cells were obtained from ATCC. Cells were treated in RPMI+10% FBS with test articles, ranging from 1 nM to 10 μM. Three days later, viable cells (LNCaP-abl, 22RV1, and COS) were measured by CellTiter-Glo assay (Promega, Madison, Wis.). For LNCaP cells, medium containing test article was changed after 3 days of treatment, and after an additional 3 days of culture, viable cells were measured by CellTiter-Glo assay.
The LNCaP cell line is androgen responsive with AR and PSA expression. It contains a T877A mutation in the AR. The 22RV1 cell line is positive for AR and PSA with additional AR splice variants and is insensitive to androgen for cell proliferation. The LNCaP-abl cell line expresses both AR and GR but is insensitive to androgen for cell proliferation. COS-7 is used as an AR negative cell line in this experiment.

Chain of GR (P04150 whole entry): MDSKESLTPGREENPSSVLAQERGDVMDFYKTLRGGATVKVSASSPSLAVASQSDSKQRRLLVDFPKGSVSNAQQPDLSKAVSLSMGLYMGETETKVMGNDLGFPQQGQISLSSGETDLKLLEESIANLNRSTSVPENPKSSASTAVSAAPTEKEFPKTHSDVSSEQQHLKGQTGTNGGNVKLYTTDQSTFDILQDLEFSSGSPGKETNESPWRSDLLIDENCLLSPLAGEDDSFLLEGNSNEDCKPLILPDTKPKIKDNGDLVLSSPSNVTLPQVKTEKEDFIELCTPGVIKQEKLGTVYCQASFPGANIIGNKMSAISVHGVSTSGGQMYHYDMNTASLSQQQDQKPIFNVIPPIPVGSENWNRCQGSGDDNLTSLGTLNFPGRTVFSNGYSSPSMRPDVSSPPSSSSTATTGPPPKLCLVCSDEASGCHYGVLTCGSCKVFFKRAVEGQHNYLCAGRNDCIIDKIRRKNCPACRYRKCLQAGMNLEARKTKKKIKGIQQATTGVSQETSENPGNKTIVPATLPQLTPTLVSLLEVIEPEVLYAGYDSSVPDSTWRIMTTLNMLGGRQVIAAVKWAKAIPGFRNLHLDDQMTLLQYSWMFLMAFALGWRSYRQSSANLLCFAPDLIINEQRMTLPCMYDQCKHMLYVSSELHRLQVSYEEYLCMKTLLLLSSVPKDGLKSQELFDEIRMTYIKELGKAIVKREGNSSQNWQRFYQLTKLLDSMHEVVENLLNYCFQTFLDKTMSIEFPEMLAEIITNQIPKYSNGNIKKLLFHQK
Chain of Human AR (P10275 whole entry): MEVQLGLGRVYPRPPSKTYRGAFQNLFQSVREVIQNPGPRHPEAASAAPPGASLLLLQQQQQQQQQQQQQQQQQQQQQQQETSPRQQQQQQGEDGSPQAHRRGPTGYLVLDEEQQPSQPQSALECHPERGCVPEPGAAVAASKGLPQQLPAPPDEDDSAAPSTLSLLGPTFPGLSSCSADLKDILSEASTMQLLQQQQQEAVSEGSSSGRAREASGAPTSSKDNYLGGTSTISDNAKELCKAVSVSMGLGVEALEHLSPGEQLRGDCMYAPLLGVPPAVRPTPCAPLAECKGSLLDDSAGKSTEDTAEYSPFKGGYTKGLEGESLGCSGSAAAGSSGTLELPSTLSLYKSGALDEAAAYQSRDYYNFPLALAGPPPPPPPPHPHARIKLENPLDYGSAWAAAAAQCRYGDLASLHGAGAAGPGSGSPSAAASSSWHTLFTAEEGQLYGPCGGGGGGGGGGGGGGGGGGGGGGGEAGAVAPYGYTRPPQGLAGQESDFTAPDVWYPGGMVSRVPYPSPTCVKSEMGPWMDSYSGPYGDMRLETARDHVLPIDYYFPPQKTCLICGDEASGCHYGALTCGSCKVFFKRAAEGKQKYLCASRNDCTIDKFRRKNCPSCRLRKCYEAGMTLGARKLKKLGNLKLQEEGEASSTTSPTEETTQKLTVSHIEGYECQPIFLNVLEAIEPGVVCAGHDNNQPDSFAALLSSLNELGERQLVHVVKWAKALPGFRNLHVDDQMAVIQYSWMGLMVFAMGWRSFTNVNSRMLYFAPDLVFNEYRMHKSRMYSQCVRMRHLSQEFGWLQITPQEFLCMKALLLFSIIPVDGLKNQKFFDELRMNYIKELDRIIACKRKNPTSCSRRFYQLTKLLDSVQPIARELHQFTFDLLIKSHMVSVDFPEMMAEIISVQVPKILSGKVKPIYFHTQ

CC1(C)C(=O)N(c2ccc(C#N)c(C(F)(F)F)c2)C(=S)N1c1ccc(CNC(=O)c2ncccn2)c(Cl)c1 [Compound 31]
IC50 (Human AR): 62 nM
IC50 (GR): > 10000 nM

CC1(C)C(=O)N(c2ccc(C#N)c(C(F)(F)F)c2)C(=S)N1c1ccc(CNC(=O)c2ncc[nH]2)c(F)c1 [Compound 3]
IC50 (Human AR): 180 nM
IC50 (GR): > 10000 nM

CC1(C)C(=O)N(c2cnc(C#N)c(C(F)(F)F)c2)C(=S)N1c1ccc(CNC(=O)c2ccccn2)c(F)c1 [Compound 50]
inhibition at 10 µM (GR; 10 μM single concentration): 69%

CC1(C)C(=O)N(c2ccc(C#N)c(C(F)(F)F)c2)C(=S)N1c1cnc(CNC(=O)c2ccccn2)c(F)c1 [Compound 53]
inhibition at 10 µM (GR): 66%

Cc1ccccc1C(=O)NCc1ccc(N2C(=S)N(c3ccc(C#N)c(C(F)(F)F)c3)C(=O)C2(C)C)cc1F [Compound 43]
inhibition at 1 µM (Human AR): 94%
inhibition at 10 µM (GR): 0%

Cc1ncsc1C(=O)NCc1ccc(N2C(=S)N(c3cccc(C(F)(F)F)c3)C(=O)C2(C)C)cc1F [Compound 76, N-(4-(5,5-dimethyl-4-oxo-2-thioxo-3-(3-(trifluoromethyl)phenyl)-imidazolidin-1-yl)-2-fluorobenzyl)-4-methylthiazole-5-carboxamide]
IC50 (Human AR): > 10000 nM
activity at 3 µM (LNCaP-abl cells): 72%
activity at 10 µM (LNCaP-abl cells): 88%
IC50 (GR): 3310 nM

CC1(C)C(=O)N(c2ccc(C#N)c(C(F)(F)F)c2)C(=S)N1c1ccc(CNC(=O)c2ccncn2)c(F)c1 [Compound 14]
inhibition at 10 µM (GR): 22%

CC(C)C(=O)NCc1ccc(N2C(=O)N(c3ccc(C#N)c(C(F)(F)F)c3)C(=O)C2(C)C)cc1F [Compound 20]
IC50 (Human AR): 1870 nM
IC50 (GR): > 10000 nM

CC1(C)C(=O)N(c2ccc(C#N)c(C(F)(F)F)c2)C(=O)N1c1ccc(CNC(=O)c2cccnc2)c(F)c1 [Compound 29]
IC50 (Human AR): 910 nM
activity at 3 µM (LNCaP-abl cells): 90%
activity at 10 µM (LNCaP-abl cells): 92%
IC50 (GR): > 10000 nM

CC1(C)C(=O)N(c2ccc(C#N)c(C(F)(F)F)c2)C(=S)N1c1ccc(CNC(=O)c2cnco2)c(F)c1 [Compound 60]
IC50 (Human AR): 115 nM
activity at 3 µM (LNCaP-abl cells): 75%
activity at 10 µM (LNCaP-abl cells): 96%
IC50 (GR): > 10000 nM

CC1(C)C(=O)N(c2ccc(C#N)c(C(F)(F)F)c2)C(=S)N1c1ccc(CNS(=O)(=O)c2ccccn2)c(F)c1 [Compound 75]
inhibition at 10 µM (GR): 40%

CC1(C)C(=O)N(c2ccc(C#N)c(F)c2)C(=S)N1c1ccc(CN2Cc3ncccc3C2=O)c(F)c1 [Compound 78, 2-fluoro-4-(3-(3-fluoro-4-((5-oxo-5,7-dihydro-6H-pyrrolo[3,4-b]pyridin-6-yl)methyl)phenyl)-4,4-dimethyl-5-oxo-2-thioxoimidazolidin-1-yl)benzonitrile]
inhibition at 10 µM (GR; 10 μM single concentration): 0%

CC1(C)C(=O)N(c2cnc(C#N)c(C(F)(F)F)c2)C(=S)N1c1ccc(CNC(=O)c2cncs2)c(Cl)c1 [Compound 36]
IC50 (Human AR): 580 nM
activity at 3 µM (LNCaP-abl cells): 82%
activity at 10 µM (LNCaP-abl cells): 59%
IC50 (GR): > 10000 nM

CC1(C)C(=O)N(c2ccc(C#N)c(C(F)(F)F)c2)C(=S)N1c1ccc(CN2Cc3ncccc3C2=O)c(F)c1 [Compound 66, 4-(3-(3-fluoro-4-((5-oxo-5H-pyrrolo[3,4-b]pyridin-6(7H)-yl)methyl)phenyl)-4,4-dimethyl-5-oxo-2-thioxoimidazolidin-1-yl)-2-(trifluoromethyl)benzonitrile]
inhibition at 1 µM (Human AR): 90%
GR antagonist assay, % of vehicle (GR): 31%

CC1(C)C(=O)N(c2ccc(C#N)c(C(F)(F)F)c2)C(=S)N1c1ccc(CNC(=O)c2cncs2)c(Cl)c1 [Compound 25]
IC50 (Human AR): 99 nM
activity at 3 µM (LNCaP-abl cells): 96%
activity at 10 µM (LNCaP-abl cells): 64%
IC50 (GR): > 10000 nM

Cc1ncsc1C(=O)NCc1ccc(N2C(=S)N(c3ccc(C#N)c(C(F)(F)F)c3)C(=O)C2(C)C)cc1Cl [Compound 32]
IC50 (Human AR): 120 nM
activity at 3 µM (LNCaP-abl cells): 93%
activity at 10 µM (LNCaP-abl cells): 62%
IC50 (GR): > 10000 nM

Cc1cccnc1C(=O)NCc1ccc(N2C(=S)N(c3ccc(C#N)c(C(F)(F)F)c3)C(=O)C2(C)C)cc1F [Compound 40]
inhibition at 10 µM (GR): 48%

Cn1nccc1C(=O)NCc1ccc(N2C(=S)N(c3ccc(C#N)c(C(F)(F)F)c3)C(=O)C23CCC3)cc1F [Compound 73]
IC50 (Human AR): 92 nM
activity at 3 µM (LNCaP-abl cells): 79%
activity at 10 µM (LNCaP-abl cells): 66%
IC50 (GR): 2960 nM

Cc1ncsc1C(=O)NCc1ncc(N2C(=S)N(c3ccc(C#N)c(C(F)(F)F)c3)C(=O)C2(C)C)cc1F [Compound 55]
inhibition at 10 µM (GR): 58%

CC1(C)C(=O)N(c2ccc(C#N)c(C(F)(F)F)c2)C(=S)N1c1ccc(CNC(=O)c2nccs2)c(F)c1 [Compound 2]
IC50 (Human AR): 31 nM
activity at 3 µM (LNCaP-abl cells): 78%
activity at 10 µM (LNCaP-abl cells): 71%
IC50 (GR): > 10000 nM

Cc1ncsc1C(=O)NCc1ccc(N2C(=S)N(c3cnc(C#N)c(C(F)(F)F)c3)C(=O)C2(C)C)cc1F [Compound 51]
inhibition at 1 µM (Human AR): 93%
inhibition at 10 µM (GR; 10 μM single concentration): 35%

CC1(C)C(=O)N(c2ccc(C#N)c(C(F)(F)F)c2)C(=O)N1c1ccc(CNC(=O)c2ncccn2)cc1 [Compound 33]
IC50 (Human AR): 304 nM
inhibition at 10 µM (GR): 3%

Cc1ncsc1C(=O)NCc1ccc(N2C(=S)N(c3ccc(C#N)c(C(F)(F)F)c3)C(=O)C23CCC3)cc1F [Compound 65]
IC50 (Human AR): 64 nM
activity at 3 µM (LNCaP-abl cells): 94%
activity at 10 µM (LNCaP-abl cells): 83%
IC50 (GR): > 10000 nM

CC1(C)C(=O)N(c2ccc(C#N)c(C(F)(F)F)c2)C(=O)N1c1ccc(CNC(=O)C2CC2)c(F)c1 [Compound 24]
IC50 (Human AR): 1090 nM
IC50 (GR): > 10000 nM

CC1(C(=O)NCc2ccc(N3C(=S)N(c4ccc(C#N)c(C(F)(F)F)c4)C(=O)C3(C)C)cc2F)CC1 [Compound 52]
inhibition at 10 µM (GR): 56%

CC1(C)C(=O)N(c2ccc(C#N)c(C(F)(F)F)c2)C(=O)N1c1ccc(CNC(=O)c2cncs2)cc1 [Compound 27]
IC50 (Human AR): 496 nM
IC50 (GR): > 10000 nM

CC1(C)C(=O)N(c2ccc(C#N)c(C(F)(F)F)c2)C(=S)N1c1ccc(CNC(=O)c2ccc3[nH]ncc3c2)c(F)c1 [Compound 79]
inhibition at 10 µM (GR): 75%

CC1(C)C(=O)N(c2ccc(C#N)c(C(F)(F)F)c2)C(=S)N1c1ccc(CNC(=O)c2ccccc2F)c(F)c1 [Compound 47]
inhibition at 10 µM (GR): 46%

CN1CC(C(=O)NCc2ccc(N3C(=S)N(c4ccc(C#N)c(C(F)(F)F)c4)C(=O)C3(C)C)cc2F)C1 [Compound 63]
inhibition at 10 µM (GR): 0%

CC1(C)C(=O)N(c2ccc(C#N)c(C(F)(F)F)c2)C(=S)N1c1ccc(CNC(=O)c2cocn2)c(F)c1 [Compound 54]
inhibition at 10 µM (GR): 56%

CC1CC1C(=O)NCc1ccc(N2C(=S)N(c3ccc(C#N)c(C(F)(F)F)c3)C(=O)C2(C)C)cc1F (centres unmarked) [Compound 41]
inhibition at 1 µM (Human AR): 88%

Cn1nccc1C(=O)NCc1ccc(N2C(=S)N(c3ccc(C#N)c(F)c3)C(=O)C2(C)C)cc1F [Compound 74]
inhibition at 10 µM (GR; 10 μM single concentration): 17%

CC#C[C@]1(O)CC[C@H]2[C@@H]3CCC4=CC(=O)CCC4=C3[C@@H](c3ccc(N(C)C)cc3)C[C@@]21C [RU486, reference compound]
GR antagonist assay, % of vehicle (GR): 13%
inhibition at 1 µM (GR; COS-7, read-out: GR antagonism inhibition at 1 μM): 72.8%

CC1(C)C(=O)N(c2ccc(C#N)c(C(F)(F)F)c2)C(=S)N1c1ccc(CNC(=O)c2ccc3cn[nH]c3c2)c(F)c1 [Compound 80]
inhibition at 10 µM (GR): 38%

CC1(C)C(=O)N(c2cnc(C#N)c(C(F)(F)F)c2)C(=S)N1c1ccc(CNC(=O)c2ncccn2)c(Cl)c1 [Compound 30]
IC50 (Human AR): 73 nM
IC50 (GR): > 10000 nM

Cc1nnc(C(=O)NCc2ccc(N3C(=S)N(c4ccc(C#N)c(C(F)(F)F)c4)C(=O)C3(C)C)cc2F)o1 [Compound 62]
inhibition at 10 µM (GR): 0%

Reference: patent US11292782B2, “Diarylhydantoin compounds and methods of use thereof” (Nuvation Bio Inc., priority 2018, dated 2022)
